Patent US20250319206A1, “CRISPR/CAS GENE EDITING OF NEH4 AND/OR NEH5 DOMAINS IN NRF2” (Christina Care Gene Editing Institute, Inc., priority 2024, published 2025)

Experiments:
Format in all cases: cell-based, Human
[1] = tested on: A549 cells; test: Cell viability (MTS) of gRNA-targeted A549 cells; settings: without any cisplatin exposure (0 uM), vs wildtype untransfected cells
Description: (§1) FIG. 4A-C: Lung adenocarcinoma cells targeting Exon 3, 4, 5 of NRF2 and assessment of chemotherapy response. (FIG. 4A) A549 cells were transfected with each respective gRNA. Genomic DNA from each cell population was isolated and amplified across exon 3, 4 or 5 of the NRF2 gene. Amplicons were sanger sequenced and analyzed for indels at the CRISPR target site. The graph presents the total editing efficiency listed as Indel and frameshifting indel % listed as FS. (FIG. 4B) Raw sequence files from cells targeted with gRNA 76 or gRNA 83 were aligned using the software program, DECODR, to display the indel pattern (listed as INDEL and %). […] Viability was measured via bioreduction of MTS to a formazan product. […] The average relative viability of cells in response to cisplatin is graphed above.
(§2) To assess CRISPR activity across various exons of NRF2, several gRNAs were designed along exon 3, 4 and 5 of the NRF2 gene in the A549 cell line. The A549 cells were transfected with each individually designed gRNA and cells were collected 72 hours after transfection. Genomic DNA was isolated, PCR amplified and Sanger sequenced. Editing activity was quantified using DECODR to deconvolute the indels present in at the cut site of each gRNA. […]

[2] = tested on: NRF2 gene; test: NRF2 gene editing by Sanger sequencing/DECODR in A549 cells; settings: 72 hours after transfection
Description: as §1, §2

[3] = tested on: Panc-1 cells; test: Cell viability with gemcitabine, CellTiter-Glo 2.0, Panc-1 cells; settings: Panc-1 cells, in the absence of gemcitabine
Method: Wildtype and transfected Panc-1 cells were plated to 24 well plates (n=5) at 50,000 cells per well and placed in incubator for 24 hours. The cells were then treated with either Gemcitabine (Selleckchem, Cat. S1714) or DMSO (Thermo Fisher, Cat. D12345). Cells treated with Gemcitabine were treated at one of the following concentrations: 0 μM, 2.5 μM, 5 μM, 25 μM while cells treated with DMSO were treated at: 0%, 0.025%, 0.05%, or 0.25%. Cells remained in Gemcitabine or DMSO for 72 hours before being evaluated using CellTiter-Glo 2.0 Cell Viability Assay (Promega, Cat. G9241).
Since our long-term objective is to develop an effective genetic treatment that would augment standard care, we decided to examine the possibility that we could restore sensitivity to gemcitabine by genetic editing of NRF2 in gemcitabine resistant Panc1 cells. We are using gemcitabine as a selection system to determine if gene editing at some level, can help restore tumor cell killing. We established the kill curve of Panc1 unedited cells by gemcitabine under our standard reaction conditions to serve as a baseline. […] Again, after 72 hours, each cell population was exposed to gemcitabine for an additional 72 hours and thereafter cell viability of the treated and untreated cells was measured using the Cell Titer 2.0 viability assay (Promega, Madison, WI, USA). […]

[4] = tested on: NRF2; test: NRF2 western blot in Panc-1 cells; settings: edited Panc-1 populations vs unedited, GAPDH loading control
Method: Panc-1 cell pellets were collected using a standard RIPA lysis buffer containing protease inhibitor cocktail. Total protein concentration of collected cells was then determined using BCA Protein Assay kit (Pierce, Rockford, IL, USA). The samples were boiled at 95° C. for 10 minutes and then underwent SDS-PAGE on a 10% Mini-PROTEAN TGX Stain-free Protein Gel (BioRad, Cat. 4568033) for 90 min at 100 V. The gel was then transferred to a nitrocellulose membrane using Trans-Blot Turbo Transfer Systems (BioRad, Hercules, CA, USA) with Trans-Blot Turbo RTA Mini 0.2 μm Nitrocellulose Transfer Kit (BioRad Cat. 1704158), mixed molecular weight program, 10 minutes. The blot was placed in 5% milk and blocked at room temperature on shaker for 2 hours. Incubation in primary NRF2 antibody was done overnight at 4° C. on shaker (1:1,000, Abcam ab62352). Membrane was then incubated at room temperature on shaker for 1 hour in NRF2 secondary (1:10,000, Abcam ab205718). The SuperSignal West Dura Extended Duration ECL (Pierce) kit was used on the LI-COR Odyssey FC to visualize bands. […]

**Q.** Which results are given for “sg83: gRNA targeting exon 4 of NRF2; GTAGCCCCTGTTGATTTAGA CGG (guide GTAGCCCCTGTTGATTTAGACGG; listed as DNA, chemistry not given here)”?
**A.** viability [1]: much lower viability; editing efficiency (comparison among gRNAs) [2]: highest editing efficiency; cell killing [3]: approximately 40%; NRF2 protein knock down [4]: significant knockdown of protein
